# Measured values from US20250313574A1, “SIALIC ACID DERIVATIVES AND METHODS OF USING SAME” (EISAI R&D MANAGEMENT CO., LTD., priority 2022, published 2025).
# Legend:
# [1] = target: Recombinant human CD33 protein (Homo sapiens (Human), UniProt P20138); assay: CD33 competitive binding assay for HTS drug screen (fluorescent multivalent sialic acid probe)
# Outline: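 Inhibition was read as reduced retention of a fluorescent multivalent sialic acid complex (final 5 μM neutravidin, 15 μM A-375, 5 μM biotin-4-FITC) on plate-immobilized human CD33. Compound was added first, the probe followed for 30 min at room temperature in PBS with 0.2% Tween-20 and 0.5% BSA, and FITC was measured after a wash.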
# [2] = target: Recombinant Human Siglec-3/CD33 protein (His-CD33) (Homo sapiens (Human), UniProt P20138); assay: Differential scanning fluorimetry (DSF) thermal shift assay; format: binding
# [3] = thermal melt shift of 0.5 μM CD33 protein with 50 μM compound
# [4] = difference in thermal melt of CD33 protein (0.5 μM) with 50 μM compound
# Chain of Recombinant human CD33 protein (P20138 18-259): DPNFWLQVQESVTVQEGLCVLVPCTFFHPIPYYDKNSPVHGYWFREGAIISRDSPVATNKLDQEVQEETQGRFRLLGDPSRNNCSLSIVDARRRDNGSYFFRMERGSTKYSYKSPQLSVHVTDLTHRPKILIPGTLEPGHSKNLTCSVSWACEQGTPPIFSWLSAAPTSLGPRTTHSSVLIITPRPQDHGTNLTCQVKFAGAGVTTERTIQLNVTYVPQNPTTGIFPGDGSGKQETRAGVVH
# Chain of Recombinant Human Siglec-3/CD33 protein (His-CD33) (P20138 18-259): as above
EC50 [1],"DSF (dTmD) [2, 3]","DSF (dTmD) [2, 4]",Structure (SMILES)
397 nM,7.5,–,CC(=O)N[C@H]1[C@H]([C@H](O)[C@H](O)CNC(=O)c2cc(C)c(O)c(C)c2)O[C@@](CCN2CCOC[C@@]23CCN(C(=O)C2(C(F)(F)F)CCCCC2)C3)(C(=O)O)C[C@@H]1O [A-102]
133 nM,10.4,–,CC(=O)N[C@H]1[C@H]([C@H](O)[C@H](O)CNC(=O)c2coc(C)c2)O[C@@](CCN2CCOC[C@@]23CCN(C(=O)OC(C)(C)C)C3)(C(=O)O)C[C@@H]1O [A-158]
1720 nM,–,6.2 °C,CC(=O)N[C@H]1[C@H]([C@H](O)[C@H](O)CNC(=O)c2cc(C)c(O)c(C)c2)O[C@@](CCN2CCOC[C@@]23CCN(C(=O)OC(C)(C)C)C3)(C(=O)O)C[C@@]1(C)O [A-201]
311 nM,–,5.46 °C,Cc1cc(C(=O)NC[C@@H](O)[C@@H](O)[C@H]2C[C@@H](O)C[C@](CCN3CCOC[C@@]34CCN(C(=O)OC(C)(C)C)C4)(C(=O)O)O2)cc(C)c1O [A-202]
600 nM,6.6,–,CC(=O)N[C@H]1[C@H]([C@H](O)[C@H](O)CNC(=O)c2ccc3c(=O)n(C)cnc3c2)O[C@@](CCN2CCOC[C@@]23CCN(C(=O)OC(C)(C)C)C3)(C(=O)O)C[C@@H]1O [A-138]
10200 nM,–,4.3 °C,Cc1cc(C(=O)NC[C@@H](O)[C@@H](O)[C@@H]2O[C@@](C/C=C/c3cccc(CNC(=O)c4cn[nH]c4)c3)(C(=O)O)C[C@H](O)[C@H]2NC(=O)Cn2cc(C3CCCCC3)nn2)cc(C)c1O [A-277]
9560 nM,–,0.8 °C,CC(=O)N[C@H]1[C@H]([C@H](O)[C@H](O)CNC(=O)c2cc(C)c(O)c(C)c2)O[C@@](C/C=C/c2cccc(CNC(=O)C3(C)COC3)c2)(C(=O)O)C[C@@H]1O [A-244]
670 nM,7.5,–,CC(=O)N[C@H]1[C@H]([C@H](O)[C@H](O)CNC(=O)c2cnn(C)c2)O[C@@](CCN2CCOC[C@@]23CCN(C(=O)OC(C)(C)C)C3)(C(=O)O)C[C@@H]1O [A-177]
173 nM,10.3,–,CC(=O)N[C@H]1[C@H]([C@H](O)[C@H](O)CNC(=O)c2cccc(N(C)C)c2)O[C@@](CCN2CCOC[C@@]23CCN(C(=O)OC(C)(C)C)C3)(C(=O)O)C[C@@H]1O [A-183]
> 100000 nM,–,−0.3 °C,CC(=O)N[C@H]1[C@H]([C@H](O)[C@H](O)CNC(=O)c2cc(C)c(O)c(C)c2)O[C@](CO)(CCN2CCOC[C@@]23CCN(C(=O)OC(C)(C)C)C3)C[C@@H]1O [A-360]
102000 nM,–,2.1 °C,Cc1cc(C(=O)NC[C@@H](O)[C@@H](O)[C@@H]2O[C@@](C/C=C/c3ccccc3)(C(=O)O)C[C@H](O)[C@H]2NC(=O)Cn2cc(C3CCCCC3)nn2)cc(C)c1O [A-283]
197 nM,9.9,–,COc1cc(C(=O)NC[C@@H](O)[C@@H](O)[C@@H]2O[C@@](CCN3CCOC[C@@]34CCN(C(=O)OC(C)(C)C)C4)(C(=O)O)C[C@H](O)[C@H]2NC(C)=O)cc(OC)c1OC [A-148]
238 nM,11.4,–,CC(=O)N[C@H]1[C@H]([C@H](O)[C@H](O)CNC(=O)c2cc(Cl)c(F)c(Cl)c2)O[C@@](CCN2CCOC[C@@]23CCN(C(=O)OC(C)(C)C)C3)(C(=O)O)C[C@@H]1O [A-159]
46 nM,11.4,–,CC(=O)N[C@H]1[C@H]([C@H](O)[C@H](O)CNC(=O)c2cc(Br)[nH]n2)O[C@@](CCN2CCOC[C@@]23CCN(C(=O)OC(C)(C)C)C3)(C(=O)O)C[C@@H]1O [A-133]
39 nM,9.6,–,CC(=O)N[C@H]1[C@H]([C@H](O)[C@H](O)CNC(=O)c2cc(C)c(O)c(C)c2)O[C@@](CCN2CCOC[C@@]23CCN(c2ccccn2)C3)(C(=O)O)C[C@@H]1O [A-037]
3670 nM,–,3.2 °C,Cc1cc(C(=O)NC[C@@H](O)[C@@H](O)[C@@H]2O[C@@](OC3CCCCC3NC(=O)CNC(=O)OCc3ccccc3)(C(=O)O)C[C@H](O)[C@H]2NC(=O)Cn2cc(C3CCCCC3)nn2)cc(C)c1O (some centres unmarked) [A-324]
